Assays:
[1] = biological target: Cytochrome P450 2C9 (Homo sapiens, UniProt P11712); assay: Inhibition of CYP2C9 in human liver microsomes using diclofenac as substrate in presence of NADPH by LC/MS/MS analysis; format: ADME
[2] = biological target: Focal adhesion kinase 1 (Homo sapiens, UniProt Q05397); assay: Inhibition of human FAK expressed in baculovirus after 30 mins using biotinyl-amino-hexanoyl-EQEDEPEGDYFEWLE-amide as substrate by TRF assay
[3] = biological target: T1, Cytochrome P450 1A2 (Homo sapiens, UniProt P05177); assay: Inhibition of CYP1A2 in human liver microsomes using phenacetin as substrate in presence of NADPH by LC/MS/MS analysis; format: ADME
T1 sequence (P05177 whole entry): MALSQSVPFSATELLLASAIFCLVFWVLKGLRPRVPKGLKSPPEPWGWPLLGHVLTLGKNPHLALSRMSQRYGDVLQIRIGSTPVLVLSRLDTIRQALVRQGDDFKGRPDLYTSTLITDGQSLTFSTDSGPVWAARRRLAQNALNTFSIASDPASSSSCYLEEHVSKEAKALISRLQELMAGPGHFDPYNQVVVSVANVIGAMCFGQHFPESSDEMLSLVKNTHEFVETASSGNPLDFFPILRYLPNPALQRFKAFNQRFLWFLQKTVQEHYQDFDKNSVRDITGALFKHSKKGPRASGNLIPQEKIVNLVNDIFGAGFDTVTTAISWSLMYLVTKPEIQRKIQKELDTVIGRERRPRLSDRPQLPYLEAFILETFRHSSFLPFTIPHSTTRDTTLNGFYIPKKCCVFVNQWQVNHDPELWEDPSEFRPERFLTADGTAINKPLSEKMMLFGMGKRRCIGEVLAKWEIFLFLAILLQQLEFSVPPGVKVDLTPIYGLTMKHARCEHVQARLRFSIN

[4] = Drug metabolism in human liver microsomes assessed as oxidative/degradative M6 metabolite formation at 10 uM after 120 mins in presence of NADPH by LC/MS/MS analysis; format: ADME; settings: 2 h
[5] = biological target: T2, Insulin receptor (Homo sapiens, UniProt P06213)
[6] = Drug metabolism in rat liver microsomes assessed as oxidative/degradative M2 metabolite formation at 10 uM after 120 mins in presence of NADPH by LC/MS/MS analysis; format: ADME; settings: 2 h
[7] = Dose normalized AUC in Sprague-Dawley rat at 5 mg/kg, po by LC/MS/MS analysis; format: ADME, organism-based; settings: in vivo
[8] = biological target: Cytochrome P450 2D6 (Homo sapiens, UniProt P10635); assay: Inhibition of CYP2D6 in human liver microsomes using dextromethorphan as substrate in presence of NADPH by LC/MS/MS analysis; format: ADME
Cytochrome P450 2D6, sequence (P10635 whole entry): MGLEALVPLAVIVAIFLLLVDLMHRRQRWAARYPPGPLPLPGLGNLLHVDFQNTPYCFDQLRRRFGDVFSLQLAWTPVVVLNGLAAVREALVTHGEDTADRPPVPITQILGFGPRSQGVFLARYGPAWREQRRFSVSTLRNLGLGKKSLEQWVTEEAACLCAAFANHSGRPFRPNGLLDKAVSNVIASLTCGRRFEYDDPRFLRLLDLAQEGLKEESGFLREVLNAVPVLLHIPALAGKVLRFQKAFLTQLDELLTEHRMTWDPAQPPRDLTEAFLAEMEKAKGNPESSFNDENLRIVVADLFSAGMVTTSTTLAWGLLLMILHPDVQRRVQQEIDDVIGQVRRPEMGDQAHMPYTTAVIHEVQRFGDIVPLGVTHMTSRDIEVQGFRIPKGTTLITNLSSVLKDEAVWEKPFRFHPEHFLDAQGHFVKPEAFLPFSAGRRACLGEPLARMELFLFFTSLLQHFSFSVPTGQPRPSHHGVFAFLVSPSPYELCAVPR

[9] = Half life in cynomolgus monkey liver microsomes by LC/MS/MS analysis; format: ADME, Macaca fascicularis
[10] = biological target: Voltage-gated inwardly rectifying potassium channel KCNH2 (Homo sapiens, UniProt Q12809); assay: Inhibition of human ERG
Voltage-gated inwardly rectifying potassium channel KCNH2, sequence (Q12809 whole entry): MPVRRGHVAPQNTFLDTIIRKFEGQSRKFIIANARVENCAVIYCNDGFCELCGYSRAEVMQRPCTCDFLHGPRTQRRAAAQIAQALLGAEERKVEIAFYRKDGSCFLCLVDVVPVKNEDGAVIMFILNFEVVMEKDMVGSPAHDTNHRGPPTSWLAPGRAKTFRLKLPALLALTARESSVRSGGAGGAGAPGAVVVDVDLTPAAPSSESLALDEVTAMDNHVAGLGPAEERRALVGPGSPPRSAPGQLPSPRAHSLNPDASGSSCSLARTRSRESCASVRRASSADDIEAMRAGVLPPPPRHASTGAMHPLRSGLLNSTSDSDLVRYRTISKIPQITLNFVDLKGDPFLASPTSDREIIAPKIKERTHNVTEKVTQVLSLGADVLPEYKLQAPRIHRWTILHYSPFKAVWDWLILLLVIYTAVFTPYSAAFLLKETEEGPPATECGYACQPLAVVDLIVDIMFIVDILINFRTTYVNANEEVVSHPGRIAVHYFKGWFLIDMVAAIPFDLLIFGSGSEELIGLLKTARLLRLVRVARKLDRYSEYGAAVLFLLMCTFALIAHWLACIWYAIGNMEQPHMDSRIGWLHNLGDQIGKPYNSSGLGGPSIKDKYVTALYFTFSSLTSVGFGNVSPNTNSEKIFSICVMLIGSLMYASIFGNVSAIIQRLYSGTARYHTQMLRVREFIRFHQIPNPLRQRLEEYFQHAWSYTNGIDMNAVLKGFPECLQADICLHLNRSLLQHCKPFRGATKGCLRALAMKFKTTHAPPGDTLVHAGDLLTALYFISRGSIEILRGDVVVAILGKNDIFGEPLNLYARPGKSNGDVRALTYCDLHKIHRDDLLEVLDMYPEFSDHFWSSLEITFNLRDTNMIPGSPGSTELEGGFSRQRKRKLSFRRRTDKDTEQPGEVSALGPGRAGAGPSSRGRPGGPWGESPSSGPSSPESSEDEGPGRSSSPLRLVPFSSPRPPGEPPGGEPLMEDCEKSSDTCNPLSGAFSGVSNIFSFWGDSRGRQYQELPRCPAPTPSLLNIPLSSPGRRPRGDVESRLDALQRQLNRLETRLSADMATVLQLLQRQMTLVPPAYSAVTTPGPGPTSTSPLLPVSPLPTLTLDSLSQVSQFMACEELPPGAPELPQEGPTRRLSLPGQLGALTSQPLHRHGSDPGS

[11] = biological target: T2, Insulin receptor; remark: listed apart in the source
[12] = Drug metabolism in human liver microsomes assessed as oxidative/degradative M5 metabolite formation at 10 uM after 120 mins in presence of NADPH by LC/MS/MS analysis; format: ADME; settings: 2 h
[13] = AUC (0 to infinity) in Sprague-Dawley rat at 5 mg/kg, po by LC/MS/MS analysis; format: ADME, organism-based; design: dose 5 mg/kg, time infinity, route oral; settings: in vivo
[14] = Dose normalized AUC in CD-1 mouse at 10 mg/kg, po by LC/MS/MS analysis; format: ADME, organism-based; settings: in vivo
[15] = (§1) Drug metabolism in rat liver microsomes assessed as (1S,5R,6S,7R)-7-[5-Chloro-2-((S)-1-methoxy-7-morpholin-4-yl-6,7,8,9-tetrahydro-5H-benzocyclohepten-2-ylamino)-pyrimidin-4-ylamino]-3-oxa-tricyclo[3.2.1.0(2,4)]octane-6-carboxylic acid amide formation at 10 uM after 120 mins in presence of NADPH by LC/MS/MS analysis; format: ADME; settings: 2 h
[16] = Half life in rat liver microsomes by LC/MS/MS analysis; format: ADME
[17] = Drug metabolism in rat liver microsomes assessed as oxidative/degradative M1 metabolite formation at 10 uM after 120 mins in presence of NADPH by LC/MS/MS analysis; format: ADME; settings: 2 h
[18] = Drug metabolism in rat liver microsomes assessed as oxidative/degradative M6 metabolite formation at 10 uM after 120 mins in presence of NADPH by LC/MS/MS analysis; format: ADME; settings: 2 h
[19] = as §1, with “human” for “rat”; format: ADME; settings: 2 h
[20] = biological target: T3, ALK tyrosine kinase receptor (Homo sapiens, UniProt Q9UM73); assay: Inhibition of NPM-ALK phosphorylation in human SUP-M2 cells after 2 to 3 hrs by ELISA; format: cell-based
Target sequence in this assay (Q9UM73 19-1620 limits assumed): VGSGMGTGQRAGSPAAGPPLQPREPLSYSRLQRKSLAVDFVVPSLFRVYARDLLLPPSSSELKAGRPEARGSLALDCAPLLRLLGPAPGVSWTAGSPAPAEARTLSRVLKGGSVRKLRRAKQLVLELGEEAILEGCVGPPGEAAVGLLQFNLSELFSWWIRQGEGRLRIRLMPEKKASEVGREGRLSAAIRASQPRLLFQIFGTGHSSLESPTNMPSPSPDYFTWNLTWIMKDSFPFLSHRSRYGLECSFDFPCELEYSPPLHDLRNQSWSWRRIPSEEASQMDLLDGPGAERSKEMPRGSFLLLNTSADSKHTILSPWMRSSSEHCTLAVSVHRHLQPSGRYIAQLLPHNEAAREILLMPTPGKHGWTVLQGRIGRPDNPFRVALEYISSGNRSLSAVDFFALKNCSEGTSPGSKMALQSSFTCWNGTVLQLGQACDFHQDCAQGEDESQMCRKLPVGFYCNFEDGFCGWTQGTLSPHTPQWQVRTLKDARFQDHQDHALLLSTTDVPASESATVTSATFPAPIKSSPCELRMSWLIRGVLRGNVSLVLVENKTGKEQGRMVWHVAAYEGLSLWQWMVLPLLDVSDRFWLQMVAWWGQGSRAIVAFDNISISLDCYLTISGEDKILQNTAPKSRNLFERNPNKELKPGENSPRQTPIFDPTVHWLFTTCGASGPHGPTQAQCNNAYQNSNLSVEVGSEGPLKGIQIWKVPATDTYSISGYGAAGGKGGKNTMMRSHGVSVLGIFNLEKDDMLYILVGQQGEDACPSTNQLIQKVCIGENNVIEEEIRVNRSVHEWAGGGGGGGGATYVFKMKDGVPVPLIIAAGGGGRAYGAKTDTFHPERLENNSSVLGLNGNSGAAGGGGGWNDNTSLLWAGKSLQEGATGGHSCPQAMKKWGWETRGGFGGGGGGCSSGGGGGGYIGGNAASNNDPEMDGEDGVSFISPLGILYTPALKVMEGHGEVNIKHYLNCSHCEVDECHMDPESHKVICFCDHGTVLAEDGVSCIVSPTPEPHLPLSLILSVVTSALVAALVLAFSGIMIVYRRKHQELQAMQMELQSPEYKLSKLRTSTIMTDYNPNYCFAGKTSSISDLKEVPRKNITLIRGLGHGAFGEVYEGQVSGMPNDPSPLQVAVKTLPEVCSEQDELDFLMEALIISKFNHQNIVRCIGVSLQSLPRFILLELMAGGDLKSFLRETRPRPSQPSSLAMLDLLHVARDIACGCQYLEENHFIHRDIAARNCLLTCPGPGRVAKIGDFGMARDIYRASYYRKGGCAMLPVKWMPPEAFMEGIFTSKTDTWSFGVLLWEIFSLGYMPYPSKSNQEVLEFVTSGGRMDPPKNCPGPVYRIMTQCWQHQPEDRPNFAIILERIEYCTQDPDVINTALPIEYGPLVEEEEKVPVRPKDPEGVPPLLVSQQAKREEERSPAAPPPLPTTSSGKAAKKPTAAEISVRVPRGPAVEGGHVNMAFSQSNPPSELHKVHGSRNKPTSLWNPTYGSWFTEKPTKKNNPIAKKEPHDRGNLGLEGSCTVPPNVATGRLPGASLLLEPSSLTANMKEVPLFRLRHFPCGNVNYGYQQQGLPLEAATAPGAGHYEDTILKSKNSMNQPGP

[21] = Dose normalized AUC in cynomolgus monkey at 10 mg/kg, po by LC/MS/MS analysis; format: ADME, organism-based, Macaca fascicularis; settings: in vivo
[22] = biological target: Cytochrome P450 2C19 (Homo sapiens, UniProt P33261); assay: Inhibition of CYP2C19 in human liver microsomes using S-mephenytoin as substrate in presence of NADPH by LC/MS/MS analysis; format: ADME
Cytochrome P450 2C19, sequence (P33261 whole entry): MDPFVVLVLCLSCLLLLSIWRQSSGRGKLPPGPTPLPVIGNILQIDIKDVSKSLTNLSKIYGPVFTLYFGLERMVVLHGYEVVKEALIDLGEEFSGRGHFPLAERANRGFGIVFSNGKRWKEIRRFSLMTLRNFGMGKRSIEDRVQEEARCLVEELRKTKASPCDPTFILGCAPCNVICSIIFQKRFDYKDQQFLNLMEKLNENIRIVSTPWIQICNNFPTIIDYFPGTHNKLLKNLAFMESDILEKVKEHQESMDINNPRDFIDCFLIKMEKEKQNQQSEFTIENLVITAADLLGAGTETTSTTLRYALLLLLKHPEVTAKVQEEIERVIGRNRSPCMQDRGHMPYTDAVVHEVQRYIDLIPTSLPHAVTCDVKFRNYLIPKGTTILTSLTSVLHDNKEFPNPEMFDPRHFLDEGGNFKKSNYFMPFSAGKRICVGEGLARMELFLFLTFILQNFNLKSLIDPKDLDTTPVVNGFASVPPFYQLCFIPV

[23] = Half life in CD-1 mouse liver microsomes by LC/MS/MS analysis; format: ADME
[24] = Half life in human liver microsomes by LC/MS/MS analysis; format: ADME
[25] = Drug metabolism in rat liver microsomes assessed as oxidative/degradative M5 metabolite formation at 10 uM after 120 mins in presence of NADPH by LC/MS/MS analysis; format: ADME; settings: 2 h
[26] = Drug metabolism in human liver microsomes assessed as oxidative/degradative M2 metabolite formation at 10 uM after 120 mins in presence of NADPH by LC/MS/MS analysis; format: ADME; settings: 2 h
[27] = Drug metabolism in human liver microsomes assessed as oxidative/degradative M1 metabolite formation at 10 uM after 120 mins in presence of NADPH by LC/MS/MS analysis; format: ADME; settings: 2 h
[28] = Drug level in rat liver microsomes treated with (1S,2S,3R,4R)-3-(5-chloro-2-((S)-1-methoxy-7-morpholino-6,7,8,9-tetrahydro-5H-benzo[7]annulen-2-ylamino)pyrimidin-4-ylamino)bicyclo[2.2.1]hept-5-ene-2-carboxamide at 10 uM after 120 mins in presence of NADPH by LC/MS/MS analysis; format: ADME; settings: 2 h
[29] = Drug level in human liver microsomes treated with (1S,2S,3R,4R)-3-(5-chloro-2-((S)-1-methoxy-7-morpholino-6,7,8,9-tetrahydro-5H-benzo[7]annulen-2-ylamino)pyrimidin-4-ylamino)bicyclo[2.2.1]hept-5-ene-2-carboxamide at 10 uM after 120 mins in presence of NADPH by LC/MS/MS analysis; format: ADME; settings: 2 h
[30] = biological target: T3, ALK tyrosine kinase receptor; assay: Inhibition of human ALK expressed in baculovirus using recombinant GST PLC-gamma as substrate assessed as phosphorylation of the substrate after 15 mins by TRF assay
[31] = biological target: Cytochrome P450 3A4 (Homo sapiens, UniProt P08684); assay: Inhibition of CYP3A4 in human liver microsomes using testosterone/midazolam as substrate in presence of NADPH by LC/MS/MS analysis; format: ADME
Cytochrome P450 3A4, sequence (P08684 whole entry): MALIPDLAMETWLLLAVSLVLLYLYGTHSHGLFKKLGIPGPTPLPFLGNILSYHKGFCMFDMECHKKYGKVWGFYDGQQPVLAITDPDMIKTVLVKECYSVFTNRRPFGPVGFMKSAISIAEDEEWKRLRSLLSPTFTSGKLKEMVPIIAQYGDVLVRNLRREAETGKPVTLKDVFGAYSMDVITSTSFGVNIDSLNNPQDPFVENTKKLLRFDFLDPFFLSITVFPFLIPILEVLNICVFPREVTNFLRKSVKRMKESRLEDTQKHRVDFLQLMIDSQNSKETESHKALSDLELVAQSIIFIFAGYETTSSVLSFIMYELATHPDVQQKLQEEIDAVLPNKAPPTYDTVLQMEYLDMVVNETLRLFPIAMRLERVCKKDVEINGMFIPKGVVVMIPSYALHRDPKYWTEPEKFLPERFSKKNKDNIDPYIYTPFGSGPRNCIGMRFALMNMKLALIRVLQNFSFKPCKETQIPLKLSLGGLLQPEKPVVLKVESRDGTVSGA

[32] = Oral bioavailability in Sprague-Dawley rat at 5 mg/kg by LC/MS/MS analysis; format: ADME, organism-based; settings: in vivo
[33] = Apparent permeability from apical to basolateral side in human Caco2 cells; format: ADME, cell-based; settings: Caco-2
[34] = AUC (0 to 6 hrs) in rat by LC/MS/MS analysis; format: ADME; design: time < 6 hr; settings: in vivo
[35] = Drug metabolism in human liver microsomes assessed as methyl group loss from N-methylmethanesulfonamide; format: ADME
[36] = Drug metabolism in cynomolgus monkey liver microsomes assessed as methyl group loss from N-methylmethanesulfonamide; format: ADME, Macaca fascicularis
[37] = Drug metabolism in mouse liver microsomes assessed as methyl group loss from N-methylmethanesulfonamide; format: ADME
[38] = Drug metabolism in rat liver microsomes assessed as methyl group loss from N-methylmethanesulfonamide; format: ADME

Cytochrome P450 2C9, sequence (P11712 whole entry): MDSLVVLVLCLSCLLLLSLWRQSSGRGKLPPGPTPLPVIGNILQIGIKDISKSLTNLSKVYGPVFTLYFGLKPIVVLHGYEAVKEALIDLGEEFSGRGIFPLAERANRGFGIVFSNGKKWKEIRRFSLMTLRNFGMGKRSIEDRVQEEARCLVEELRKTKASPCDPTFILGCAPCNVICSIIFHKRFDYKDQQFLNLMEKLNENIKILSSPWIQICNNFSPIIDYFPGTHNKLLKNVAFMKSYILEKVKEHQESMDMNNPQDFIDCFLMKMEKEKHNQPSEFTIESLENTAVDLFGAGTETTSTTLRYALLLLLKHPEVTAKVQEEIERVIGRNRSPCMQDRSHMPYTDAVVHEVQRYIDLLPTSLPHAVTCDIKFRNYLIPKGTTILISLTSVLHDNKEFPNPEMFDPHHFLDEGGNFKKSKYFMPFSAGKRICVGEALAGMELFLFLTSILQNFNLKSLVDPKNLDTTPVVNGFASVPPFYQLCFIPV

Row | IC50 [1] [µM] | IC50 [3] [µM] | IC50 [8] [µM] | half-life [9] [min] | AUC(0-inf) [13] [µg·h/mL] | half-life [16] [min] | IC50 [20] [µM] | IC50 [22] [µM] | half-life [23] [min] | half-life [24] [min] | IC50 [30] [µM] | bioavailability [32] [%] | Compound | IC50 [10] [µM] | also measured
1 | > 5.6 | > 5.6 | > 5.6 | 24 | 1.2 | 40 |  | > 5.6 | 40 | 40 |  | 18 | CNC(=O)c1ccccc1Nc1nc(Nc2ccc3c(c2OC)CCC[C@@H](N2CCN(CCO)CC2)C3)ncc1Cl | > 10 | Papp A→B [33]: > 10 nm/s
2 |  |  |  | 8 |  | 37 | 0.03 |  | 37 | 13 | 0.002 | 38 | COc1c(Nc2ncc(Cl)c(Nc3ccccc3N(C)S(C)(=O)=O)n2)ccc2c1CCCC(N1CCN(CCO)CC1)C2 (racemic) |  | AUC(0-t) at 6 h [34]: 3.96 µg·h/mL; Drug metabolism [35]: Metabolite_Detected; Drug metabolism [36]: Metabolite_Detected; Drug metabolism [37]: Metabolite_Detected; Drug metabolism [38]: Metabolite_Detected
3 |  |  |  |  |  | 33 | 0.04 |  |  | 12 | 0.0023 | 9 | COc1c(Nc2ncc(Cl)c(Nc3ccccc3N(C)S(C)(=O)=O)n2)ccc2c1CCCC(N1CCN(C)CC1)C2 (racemic) |  | AUC(0-t) at 6 h [34]: 1.3 µg·h/mL

The remaining lines, values behind:

Row | Compound | IC50 [1] [µM] | IC50 [3] [µM] | IC50 [8] [µM] | half-life [9] [min] | AUC(0-inf) [13] [µg·h/mL] | half-life [16] [min] | IC50 [20] [µM] | IC50 [22] [µM] | half-life [23] [min] | half-life [24] [min] | IC50 [30] [µM] | bioavailability [32] [%] | IC50 [10] [µM] | also measured
4 | COc1c(Nc2ncc(Cl)c(N[C@H]3[C@@H](C(N)=O)[C@@H]4C=C[C@H]3C4)n2)ccc2c1CC[C@@H](N1CCOCC1)CC2 | > 10 | > 10 | > 10 | 17 | 1.2 | 7 to 16 | 0.02 to 0.042 | > 10 | 8 to 13 | 10 to 11 |  |  | > 10 | IC50 [2]: 0.025 to 0.03 µM; Drug metabolism [4]: Metabolite_Detected; IC50 [5]: 0.662 to 1.26 µM; Drug metabolism [6]: Metabolite_Detected; AUC/dose [7]: 246 ng·h/mL; IC50 [11]: > 10 µM; Drug metabolism [12]: Metabolite_Detected; AUC/dose [14]: 299 ng·h/mL; Drug metabolism [15]: Metabolite_Detected; Drug metabolism [17]: Metabolite_Detected; Drug metabolism [18]: Metabolite_Detected; Drug metabolism [19]: Metabolite_Detected; AUC/dose [21]: 95 ng·h/mL; Drug metabolism [25]: Metabolite_Detected; Drug metabolism [26]: Metabolite_Detected; Drug metabolism [27]: Metabolite_Detected
5 | COc1c(Nc2ncc(Cl)c(N[C@H]3[C@@H](C(N)=O)[C@H]4C[C@@H]3C3OC34)n2)ccc2c1CC[C@@H](N1CCOCC1)CC2 (some centres not stated) |  |  |  |  |  |  |  |  |  |  |  |  |  | Drug metabolism [28]: Metabolite_Detected; Drug metabolism [29]: Metabolite_Detected
6 | COc1c(Nc2ncc(Cl)c(N[C@H]3[C@@H](C(N)=O)[C@@H]4C=C[C@H]3C4)n2)ccc2c1CCC[C@H](N1CCN(C)CC1)C2 | > 10 | > 10 | > 10 | 9 | 4.41 | 40 | 0.2 | > 10 | 40 | 15 | 0.009 to 0.014 | 11 | 9.1 | IC50 [31]: > 10 µM
7 | COc1c(Nc2ncc(Cl)c(N[C@H]3[C@@H](C(N)=O)[C@@H]4C=C[C@H]3C4)n2)ccc2c1CCCC(N1CCN(C)CC1)C2 (single isomer, unassigned) | > 10 | > 10 | > 10 | 7 | 5.53 | 39 | 0.2 | > 10 | 40 | 11 | 0.009 | 11 | 7.9 | IC50 [31]: > 10 µM

— ChEMBL document CHEMBL3856231 (J Med Chem, 2016)
